Experiments:
Format in all cases: cell-based, mouse
[1] = tested on: TLR4 signaling (IRF-1 protein); assay: LPS-induced upregulation of IRF-1 protein, SDS-PAGE/Western; settings: 100 ng/ml LPS, 1.5 h
Description: (§1) FIG. 3. Effect of blocking peptides on activation of IRF-3 and IRF-1. […] Primary mouse macrophages were stimulated with 100 ng/ml of LPS. Seventeen μg of total protein was loaded per lane of the native gel. Other details are as described in the legend for FIG. 1.
(§2) SDS-PAGE and Western blot analysis were performed as described previously (Medvedev et al., 2001, J. Immunol. 167, 2257) with minor modifications. Antibodies for detection of activated MAPKs (pERK, pJNK and pP38) were purchased from Cell Signaling Technology (Beverly, Mass.). IRF-1 was detected using a rabbit polyclonal antibody from Santa-Cruz (Santa Cruz, Calif.). Antibody for detection of tyrosine-701 phosphorylated STAT1 was purchased from Zymed Laboratories (San Francisco, Calif.).
Importantly, MyD88 knockout macrophages are capable of inducing IRF-1 mRNA (Yamamoto et al., 2003, supra).

[2] = tested on: TLR4 signaling (IRF-3 dimerization); assay: LPS-induced dimerization of IRF-3, native PAGE; settings: 100 ng/ml LPS, 1.5 hr
Description: as §1
Native PAGE for detection of IRF-3 activation was performed with minor modifications (Iwamura et al., 2001, Genes Cells 6, 375). One×10^7 thioglycollate-elicited cells were plated into a 6 cm dish and washed with PBS to remove non-adherent cells. Primary macrophages were stimulated with 100 ng/ml of LPS for 1.5 hr and lysed in buffer containing 50 mM TRIS-HCl pH 7.5, 150 mM NaCl, 1 mM EDTA, 1% NP-40, 1 mM sodium orthovanadate and 1× Complete protease inhibitor cocktail (Roche, Mannheim, Germany). Lysates were mixed with native lysis buffer (Bio-Rad, Hercules, Calif.) supplemented with 1% deoxycholate. Fifteen to 20 μg protein per lane was electrophoresed on a non-reducing gel and immunoblotted. IRF-3 dimers and monomers were detected using rabbit anti-IRF-3 antibody (Zymed Laboratories) by Western analysis.
Interferon Regulatory Factors (IRFs) were first identified as important transcriptional mediators of the antiviral immune response (reviewed in Taniguchi et al., 2001, Annu. Rev. Immunol. 19, 623). Later, it was recognized that this family of transcription factors plays an essential role in signal transduction mediated by different TLRs. IRF-1 is regulated transcriptionally by signaling from different TLRs, as well as by cytokines induced by TLR engagement (e.g., IL-1, TNF, and IFN-β) (Fujita et al., 1989, Proc. Natl. Acad. Sci. USA 86, 9936). In contrast, IRF-3 is constitutively expressed in many cell types (Au et al., 1995, Proc. Natl. Acad. Sci. USA 92, 11675). Upon stimulation through TLR4 or TLR3, IRF-3 is phosphorylated at multiple sites in its C-terminus, and this modification enables it to dimerize and translocate to the nucleus where it targets IRF-3-responsive genes (Kawai et al., 2001, supra; Lin et al., 1999, Mol. Cell. Biol. 19, 2465).

[3] = tested on: TLR4 signaling (LPS-induced IL-1β, MIP-1β, IFN-β, RANTES mRNA); assay: LPS-induced gene expression in primary murine macrophages, real-time PCR
Description: FIG. 1. Effect of blocking peptides on the cytokine induction by LPS. Thioglycollate-elicited primary murine macrophages were preincubated in the presence of 40 μMof BP for one hour before stimulation with 10 ng/ml of LPS. (A) Quantitative real-time PCR analysis of gene expression. (B) Secretion of IL-1β and IL-6. Concentration of the cytokines was measured after overnight incubation of the cells in the presence of LPS and the peptides. (C) Sensitivity of the LPS-stimulated expression of IFN-β and IL-1β mRNA to varying concentrations of TRAM and MyD88 BP. Total mRNA was isolated 1 hour after LPS stimulation (A and C). *p<0.05; **p<0.01.
FIG. 6. Effect of mutant TRAM BB loop peptides on LPS-induced activation of IL1-β and IFN-β mRNA. Details of the experiments are as described in the legend for FIG. 1, except for the cells were preincubated with peptides only for 30 minutes.
C3H/OuJ mice were purchased from the Jackson Laboratory (Bar Harbor, Me.). Thioglycollate-elicited peritoneal macrophages were harvested and cultured in the presence of E. coli K235 LPS or Pam3Cys as described previously (Salkowski et al., 1999, J. Immunol. 164, 1529).
(§3) Total cellular RNA was extracted from macrophage cultures as described elsewhere and reversed transcribed using AMV Reverse Transcriptase (Promega, Madison, Wis.) and poly-T priming as recommended by the manufacturer. The resulting cDNA was quantified by real time PCR using SYBR Green PCR Master Mix (Applied Biosystems) and ABI Prism 7900HT cycler. Primers for detection of IL-1β, IFN-β, MIP-1β, […]RANTES, and HPRT mRNAs were designed using the Primer Express 2.0 program (Applied Biosystems). Relative gene expression was calculated using ΔCt method with HPRT as a housekeeping gene (1.8̂(CtHPRT−CtGene)) Statistical analysis was performed by one way ANOVA with repeated measures, followed by Dunnett's multiple comparison post hoc test with p≦0.05 chosen as the level of significance.
Mice with targeted mutations in MyD88 (Kawai et al., 2001, supra; Toshchakov et al., 2002, supra) or TIRAP (Yamamoto et al., 2002, Nature 420, 324) retain the capacity to signal through the MyD88-independent pathway. […] Therefore, the first question we sought to address experimentally is whether interactions of the BB-loops of the TIR domains of these adapters affect protein interactions leading to gene expression. To this end, we designed cell permeable peptides whose sequences correspond to the BB-loops of each adapter molecule and measured the ability of each BP to interfere with the induction of immediate response genes induced via MyD88-dependent and independent pathways. […] All BB-loop-containing peptides exerted an inhibitory effect on LPS-induced expression of MyD88-dependent IL-1β and […], as well as MyD88-independent IFN-β and RANTES mRNA, as measured by real-time PCR (FIG. 1A).

[4] = tested on: TLR4 signaling (LPS-induced phosphorylation of ERK, JNK, p38); assay: LPS-stimulated activation of MAPKs (pERK, pJNK, pP38), Western blot; settings: 40 μM, 1 h preincubation, LPS 10 ng/ml
Description: (§4) FIG. 2. Effect of blocking peptides on the LPS-stimulated activation of MAPKs and Tyr701 STAT-1. Ten μg of total protein was loaded per lane. A representative blot of three separate experiments is shown. Other details are given in the Materials and Methods section and legend for FIG. 1.
(§5) FIG. 4. Comparative effect of BPs on TLR2-vs. TLR4-mediated activation of MAPKs (A) and IL-1β mRNA expression (B). For Western blot analysis, 4.5 x10^6 primary macrophages were preincubated without or with 40 μM BP and stimulated for 30 min with LPS (10 ng/ml) or Pam3Cys (P3C; 150 ng/ml). The results shown are a representative blot of three separate experiments. Experimental details for FIG. 4B are the same as reported in the legend to FIG. 1A.
FIG. 5. Effect of mutated TRAM BB loop peptides on LPS-induced activation of ERK. Details of the experiment are as in legend for FIG. 4, except for the cells were preincubated with peptides only for 30 minutes.
as §2
Using antibodies specific for the phosphorylated (activated) forms of JNK, ERK, and p38, we next sought to examine the effect of BB-loop-containing inhibitory peptides on LPS-stimulated activation of MAPKs. LPS induces quick and transient activation of MAPKs in primary macrophages (FIG. 2A) that was not affected by the addition of CP. […] The TIRAP BP was the weakest BP; all MAPKs were activated in the presence of it, although to a lesser extent when compared to CP.

[5] = tested on: TLR2 signaling (Pam3Cys-induced IL-1β mRNA); assay: Pam3Cys-induced cytokine mRNA expression, real-time PCR; settings: 40 μM, Pam3Cys
Description: as §5, §3
Similar to their effect on activation of MAPKs, BPs were much weaker inhibitors with respect to Pam3Cys- vs. LPS-induced expression of IL-1β mRNA.

[6] = tested on: TLR4 signaling (LPS-induced STAT-1 phosphorylation); assay: LPS-induced phosphorylation of STAT-1, Western blot; settings: 40 μM BP
Description: as §4, §2

RQIKIWFQNRRMKWKKVSDRDVLPGTCVWS (MyD88 blocking peptide) [MyD88-BP]
effect on LPS-induced upregulation of IRF-1 protein [1]: strongest inhibitors
inhibition of LPS-induced dimerization of IRF-3 [2]: significantly inhibited
inhibitory effect on LPS-induced expression of IL-1β, MIP-1β, IFN-β and RANTES mRNA ([3]; 40 μM BP, 1 h preincubation, 10 ng/ml LPS, mRNA 1 h after LPS): comparable or only slightly less inhibitory
IL-1β mRNA expression in LPS-stimulated cells, of the level detected in the presence of the CP ([3]; 40 μM, LPS 10 ng/ml): < 5%
effect on LPS-induced activation (phosphorylation) of MAPKs (ERK, JNK) [4]: strongly blocked
IL-1β gene expression in Pam3Cys-stimulated cells, of control levels [5]: approximately 25%
effect on Pam3Cys-induced expression of IL-1β mRNA [5]: statistically significant inhibitory effect
inhibition of LPS-induced Tyr701 phosphorylation of STAT-1 [6]: highly effective

Reference: patent publication US20100069297A1, “Selective Inhibition of TLR4 Signaling” (priority 2005, published 2010)
